Laboratory results from ChEMBL document CHEMBL3734649, “H2O-mediated isatin spiro-epoxide ring opening with NaCN: Synthesis of novel 3-tetrazolylmethyl-3-hydroxy-oxindole hybrids and their anticancer evaluation” (Eur J Med Chem, 2015).
Blank lines part the entries; values can stand above or below the compound they belong to. Activity calls are given as the source filed them. No cut-off for these calls is given here.

Assays:
[1] = Anticancer activity against human BT549 cells after 48 hrs by MTT assay; format: functional, cell-based; settings: BT-549, 48 h
MDA-MB-231 = assay: Anticancer activity against human MDA-MB-231 cells after 48 hrs by MTT assay; format: functional, cell-based; settings: MDA-MB-231, 48 h
[2] = Anticancer activity against human PC3 cells after 48 hrs by MTT assay; format: functional, cell-based; settings: PC-3, 48 h
[3] = Anticancer activity against human DU145 cells after 48 hrs by MTT assay; format: functional, cell-based; settings: DU-145, 48 h
[4] = Anticancer activity against human PA1 cells after 48 hrs by MTT assay; format: functional, cell-based; settings: PA-1, 48 h
[5] = Cytotoxicity against human RWPE1 cells after 48 hrs by MTT assay; format: cell-based; settings: RWPE-1, 48 h
DU-145 [6] = assay: Induction of apoptosis in human DU145 cells assessed as condensed,pyknotic and fragmented nuclei at 1.25 to 5 uM after 48 hrs by DAPI staining based fluorescent microscopic analysis; format: functional, cell-based
DU-145 [7] = assay: Induction of apoptosis in human DU145 cells assessed as reduction in viable cells at 1.25 to 5 uM after 24 hrs by phase contrast microscopic analysis; format: functional, cell-based
[8] = Selectivity index, ratio of IC50 for human RWPE1 cells to IC50 for human DU145 cells; format: functional
DU-145 [9] = assay: Anticlonogenic activity against human DU145 cells assessed as inhibition of colony formation of cells incubated for 24 hrs followed by compound washout measured after 14 days by methylene-blue staining-based assay; format: functional, cell-based
DU-145 [10] = assay: Induction of apoptosis in human DU145 cells assessed as apoptotic bodies at 1.25 to 5 uM after 24 hrs by phase contrast microscopic analysis; format: functional, cell-based
DU-145 [11] = assay: Induction of apoptosis in human DU145 cells assessed as […] deformation at 1.25 to 5 uM after 24 hrs by phase contrast microscopic analysis; format: functional, cell-based
DU-145 [12] = assay: Induction of apoptosis in human DU145 cells assessed as cell shrinkage at 1.25 to 5 uM after 24 hrs by phase contrast microscopic analysis; format: functional, cell-based
DU-145 [13] = assay: Induction of apoptosis in human DU145 cells assessed as apoptotic bodies at 1.25 to 5 uM after 48 hrs by acridine orange/ethidium bromide staining based fluorescent microscopic analysis; format: functional, cell-based
DU-145 [14] = assay: Induction of apoptosis in human DU145 cells assessed as membrane blebbing at 1.25 to 5 uM after 48 hrs by acridine orange/ethidium bromide staining based fluorescent microscopic analysis; format: functional, cell-based
DU-145 [15] = assay: Induction of apoptosis in human DU145 cells assessed as cell shrinkage at 1.25 to 5 uM after 48 hrs by acridine orange/ethidium bromide staining based fluorescent microscopic analysis; format: functional
DU-145 [16] = assay: Induction of apoptosis in human DU145 cells assessed as chromatin condensation at 1.25 to 5 uM after 48 hrs by acridine orange/ethidium bromide staining based fluorescent microscopic analysis; format: functional, cell-based
DU-145 [17] = assay: Induction of DNA fragmentation in human DU145 cells assessed as smear formation at 1.25 to 2.5 uM after ethidium bromide staining based agarose gel electrophoresis; format: functional, cell-based
DU-145 [18] = assay: Induction of DNA fragmentation in human DU145 cells assessed as DNA ladder formation at 5 uM after ethidium bromide staining based agarose gel electrophoresis; format: functional, cell-based
[19] = Cell cycle arrest in human DU145 cells assessed as accumulation at G1 phase at 2 uM after 24 hrs by propidium iodide staining based flow cytometric analysis (reference value: 78.18%); format: functional; settings: DU-145
[20] = Cell cycle arrest in human DU145 cells assessed as accumulation at S phase at 2 uM after 24 hrs by propidium iodide staining based flow cytometric analysis (reference value: 3.39%); format: functional; settings: DU-145
[21] = Cell cycle arrest in human DU145 cells assessed as accumulation at G2/M phase at 2 uM after 24 hrs by propidium iodide staining based flow cytometric analysis (reference value: 16.66%); format: functional; settings: DU-145
[22] = Cell cycle arrest in human DU145 cells assessed as accumulation at G1 phase at 4 uM after 24 hrs by propidium iodide staining based flow cytometric analysis (reference value: 78.18%); format: functional; settings: DU-145
[23] = Cell cycle arrest in human DU145 cells assessed as accumulation at S phase at 4 uM after 24 hrs by propidium iodide staining based flow cytometric analysis (reference value: 3.39%); format: functional; settings: DU-145
[24] = Cell cycle arrest in human DU145 cells assessed as accumulation at G2/M phase at 4 uM after 24 hrs by propidium iodide staining based flow cytometric analysis (reference value: 16.66%); format: functional; settings: DU-145
[25] = Cell cycle arrest in human DU145 cells assessed as accumulation at G1 phase at 8 uM after 24 hrs by propidium iodide staining based flow cytometric analysis (reference value: 78.18%); format: functional; settings: DU-145
[26] = Cell cycle arrest in human DU145 cells assessed as accumulation at S phase at 8 uM after 24 hrs by propidium iodide staining based flow cytometric analysis (reference value: 3.39%); format: functional; settings: DU-145
[27] = Cell cycle arrest in human DU145 cells assessed as accumulation at G2/M phase at 8 uM after 24 hrs by propidium iodide staining based flow cytometric analysis (reference value: 16.66%); format: functional; settings: DU-145
DU-145 [28] = assay: Induction of apoptosis in human DU145 cells assessed as dead cells at 1.25 uM after 24 hrs by annexin V-FITC/propidium iodide staining based flow cytometric analysis (reference value: 2.78%); format: functional
DU-145 [29] = assay: Induction of apoptosis in human DU145 cells assessed as late apoptotic cells at 1.25 uM after 24 hrs by annexin V-FITC/propidium iodide staining based flow cytometric analysis (reference value: 4.48%); format: functional
DU-145 [30] = assay: Induction of apoptosis in human DU145 cells assessed as viable cells at 1.25 uM after 24 hrs by annexin V-FITC/propidium iodide staining based flow cytometric analysis (reference value: 89.63%); format: functional; settings: DU-145, 24 h, read-out: Activity
DU-145 [31] = assay: Induction of apoptosis in human DU145 cells assessed as early apoptotic cells at 1.25 uM after 24 hrs by annexin V-FITC/propidium iodide staining based flow cytometric analysis (reference value: 3.11%); format: functional
DU-145 [32] = assay: Induction of apoptosis in human DU145 cells assessed as dead cells at 2.5 uM after 24 hrs by annexin V-FITC/propidium iodide staining based flow cytometric analysis (reference value: 2.78%); format: functional
DU-145 [33] = assay: Induction of apoptosis in human DU145 cells assessed as late apoptotic cells at 2.5 uM after 24 hrs by annexin V-FITC/propidium iodide staining based flow cytometric analysis (reference value: 4.48%); format: functional
DU-145 [34] = assay: Induction of apoptosis in human DU145 cells assessed as viable cells at 2.5 uM after 24 hrs by annexin V-FITC/propidium iodide staining based flow cytometric analysis (reference value: 89.63%); format: functional; settings: DU-145, 24 h, read-out: Activity
DU-145 [35] = assay: Induction of apoptosis in human DU145 cells assessed as early apoptotic cells at 2.5 uM after 24 hrs by annexin V-FITC/propidium iodide staining based flow cytometric analysis (reference value: 3.11%); format: functional
DU-145 [36] = assay: Induction of apoptosis in human DU145 cells assessed as dead cells at 5 uM after 24 hrs by annexin V-FITC/propidium iodide staining based flow cytometric analysis (reference value: 2.78%); format: functional
DU-145 [37] = assay: Induction of apoptosis in human DU145 cells assessed as late apoptotic cells at 5 uM after 24 hrs by annexin V-FITC/propidium iodide staining based flow cytometric analysis (reference value: 4.48%); format: functional
DU-145 [38] = assay: Induction of apoptosis in human DU145 cells assessed as viable cells at 5 uM after 24 hrs by annexin V-FITC/propidium iodide staining based flow cytometric analysis (reference value: 89.63%); format: functional; settings: DU-145, 24 h, read-out: Activity
DU-145 [39] = assay: Induction of apoptosis in human DU145 cells assessed as early apoptotic cells at 5 uM after 24 hrs by annexin V-FITC/propidium iodide staining based flow cytometric analysis (reference value: 3.11%); format: functional
DU-145 [40] = assay: Induction of apoptosis in human DU145 cells assessed as loss of mitochondrial membrane potential at 5 uM after 24 hrs by rhodamine 123 based spectrofluorometric analysis relative to control; format: functional
DU-145 [41] = assay: Induction of apoptosis in human DU145 cells assessed as ROS production after 24 hrs by carboxy-DCFDA based fluorescence microscopic analysis; format: functional, cell-based
DU-145 [42] = assay: Induction of apoptosis in human DU145 cells after 24 hrs by annexin V-FITC/propidium iodide staining based flow cytometric analysis; format: functional, cell-based

Compound: O=C1N(Cc2ccccc2)c2ccccc2C1(O)Cc1nnn[nH]1 (centres undefined)
- IC50 [1]: > 100 µM
- IC50 (MDA-MB-231): 74.1 µM
- IC50 [2]: > 100 µM
- IC50 [3]: > 100 µM
- IC50 [4]: > 100 µM

Compound: CCN1C(=O)C(O)(Cc2nnn[nH]2)c2cc(C)ccc21 (centres undefined)
- IC50 [1]: > 100 µM
- IC50 (MDA-MB-231): > 100 µM
- IC50 [2]: > 100 µM
- IC50 [3]: 14.6 µM
- IC50 [4]: > 100 µM
- IC50 [5]: > 100 µM

Compound: Cc1ccc2c(c1)C(O)(Cc1nnn[nH]1)C(=O)N2Cc1ccccc1 (centres undefined)
- Activity (DU-145 [6]): Active
- Activity (DU-145 [7]): Active
- IC50 [1]: 91.5 µM
- IC50 (MDA-MB-231): > 100 µM
- IC50 [2]: 11.7 µM
- IC50 [3]: 4.26 µM
- IC50 [4]: 33.9 µM
- IC50 [5]: 20.9 µM
- Ratio IC50 [8]: 5
- Activity (DU-145 [9]): Dose-dependent effect
- Activity (DU-145 [10]): Active
- Activity (DU-145 [11]): Active
- Activity (DU-145 [12]): Active
- Activity (DU-145 [13]): Active
- Activity (DU-145 [14]): Active
- Activity (DU-145 [15]): Active
- Activity (DU-145 [16]): Active
- Activity (DU-145 [17]): Active
- Activity (DU-145 [18]): Active
- Activity [19]: 44.8%
- Activity [20]: 12.3%
- Activity [21]: 39.8%
- Activity [22]: 36.3%
- Activity [23]: 6.71%
- Activity [24]: 52.8%
- Activity [25]: 17%
- Activity [26]: 7.34%
- Activity [27]: 72.8%
- Activity (DU-145 [28]): 6.27%
- Activity (DU-145 [29]): 8.51%
- viability at 1.25 µM (DU-145 [30]): 68.6%
- Activity (DU-145 [31]): 16.63%
- Activity (DU-145 [32]): 3.2%
- Activity (DU-145 [33]): 11.6%
- viability at 2.5 µM (DU-145 [34]): 58.1%
- Activity (DU-145 [35]): 27%
- Activity (DU-145 [36]): 1.31%
- Activity (DU-145 [37]): 12.59%
- viability at 5 µM (DU-145 [38]): 41.3%
- Activity (DU-145 [39]): 44.77%
- Activity (DU-145 [40]): 45.4%
- Activity (DU-145 [41]): Dose-dependent effect
- Activity (DU-145 [42]): Dose-dependent effect

Compound: CCN1C(=O)C(O)(Cc2nnn[nH]2)c2cc(Br)ccc21 (centres undefined)
- IC50 [1]: > 100 µM
- IC50 (MDA-MB-231): > 100 µM
- IC50 [2]: > 100 µM
- IC50 [3]: > 100 µM
- IC50 [4]: > 100 µM

Continued, in another order:

- IC50 (MDA-MB-231): > 100 µM
Compound: CN1C(=O)C(O)(Cc2nnn[nH]2)c2ccccc21 (centres undefined)
- IC50 [1]: > 100 µM
- IC50 [2]: 44.8 µM
- IC50 [3]: 36.8 µM
- IC50 [4]: 45.5 µM

- IC50 (MDA-MB-231): 30.3 µM
Compound: O=C1N(Cc2ccccc2)c2ccc(Cl)cc2C1(O)Cc1nnn[nH]1 (centres undefined)
- IC50 [1]: > 100 µM
- IC50 [2]: > 100 µM
- IC50 [3]: > 100 µM
- IC50 [4]: 100 µM

- IC50 (MDA-MB-231): > 100 µM
Compound: O=C1N(Cc2ccc(Br)cc2)c2ccc(Cl)cc2C1(O)Cc1nnn[nH]1 (centres undefined)
- IC50 [1]: 74.5 µM
- IC50 [2]: 87.9 µM
- IC50 [3]: 19.5 µM
- IC50 [4]: 35.8 µM

- IC50 (MDA-MB-231): > 100 µM
Compound: CN1C(=O)C(O)(Cc2nnn[nH]2)c2cc(Cl)ccc21 (centres undefined)
- IC50 [1]: > 100 µM
- IC50 [2]: > 100 µM
- IC50 [3]: 76 µM
- IC50 [4]: > 100 µM

- IC50 (MDA-MB-231): 67.3 µM
Compound: CN1C(=O)C(O)(Cc2nnn[nH]2)c2cc(Br)ccc21 (centres undefined)
- IC50 [1]: > 100 µM
- IC50 [2]: > 100 µM
- IC50 [3]: > 100 µM
- IC50 [4]: > 100 µM
